# Source: patent US20200163334A1, “INSECT REPELLENT” (FMC Corporation, priority 2016, published 2020)
# Experiments:
# [1] = system: Red imported fire ant (Solenopsis invicta); assay: Fire ant repellency, baited plates near mounds (Example 6); type: in vivo; settings: separate trial; about 100 mg per plate, within 4 feet of mounds
# From the text: Formulation A was poured into a plastic spray bottle and was sprayed onto 20, eight inch paper plates, one squeeze of the pump trigger per plate. […] Ten treated plates were placed randomly on the ground on a farm in Sparks, Ga., USA and ten control (untreated) plates were placed on the ground about 3 feet from the treated plates. Ten treated plates were placed about 4 feet from active Red imported fire ant mounds and ten control plates were placed near the same mounds no closer than 3 feet from the treated plates. Each plate received approximately 15 mL of an aqueous 25% honey solution.
# Fifty percent of the control plates had active fire ant feeding within 15 minutes and 100% of the control plates had active fire ant feeding within 30 minutes.
# insects = settings: Table 1 of U.S. Pat. No. 6,958,146, 7,867,479 and 8,092,790; cited from earlier work
# [2] = system: house flies (Musca domesticae); settings: U.S. Pat. No. 6,958,146, 7,867,479 and 8,092,790; cited from earlier work
smiles,measurement,setting,value
COC(=O)c1ccccc1N [methyl anthranilate],deterrence of fire ant feeding,[1],did not deter fire ants from feeding
same,insects on sticky traps,insects,quickly became covered with hundreds of insects
same,house fly response,[2],repelled
